Measurements reported in US12173018B2, “Penicillin-binding protein inhibitors” (priority 2018, dated 2024).
Read-outs that look alike come from different tables or passages of the source.

Legend:
E. coli PBP3 = E. coli PBP3 (Escherichia coli (strain K12), UniProt P0AD68); assay: E. coli PBP3 Bocillin-FL fluorescence polarization competition binding assay
Method in brief: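 FP competition: 1.5 μM PBP, 0.1 μM Bocillin-FL, cpd 0–1000 μM; 50 mM Hepes pH 8.0/300 mM NaCl/5% glycerol. Read 490/520 nm immediately after Bocillin-FL addition, 60 min. EC50 = cpd conc. lowering probe binding.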

E. coli ATCC 25922 = assay: Broth microdilution MIC, E. coli ATCC 25922; assay type: cell-based; conditions: Escherichia coli, ATCC25922; E. coli ATCC 25922, broth microdilution; read-out: MIC E. coli 25922
Method in brief: (§1)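 Colonies from Mueller Hinton II agar were grown 3-5 hours at 37° C in cation-supplemented broth, adjusted by OD600, then added to 2-fold compound dilutions at 5×10^5 CFU/mL. After 16-20 hours at 37° C, MICs were scored visually.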

E. coli AG100 = assay: Broth microdilution MIC, E. coli AG100 (wild-type parent); assay type: cell-based; conditions: Escherichia coli; wild-type parent E. coli AG100, broth microdilution; read-out: MIC E. coli AG100
Method in brief: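 Broth microdilution in cation-supplemented Mueller-Hinton broth, 2-fold serial compound dilutions, inoculum 5×10^5 CFU/mL from 3-5 h log culture.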

E. coli 901C = assay: microbe, parasite or virus in culture; assay type: cell-based; conditions: Escherichia coli; hyper-permeable E. coli 901C, broth microdilution; read-out: MIC E. coli 901C
Method in brief: as §1

E. coli AG100A = assay: microbe, parasite or virus in culture; assay type: cell-based; conditions: Escherichia coli, read-out: MIC E. coli AG100A
Method in brief: as §1

E. coli D22 = assay: microbe, parasite or virus in culture; assay type: cell-based; conditions: Escherichia coli; hyper-permeable E. coli D22, broth microdilution; read-out: MIC E. coli D22
Method in brief: as §1

K. pneumoniae SI-117 = assay: microbe, parasite or virus in culture; assay type: cell-based; conditions: Klebsiella pneumoniae, SI117, read-out: MIC K. pneumoniae SI-117
Method in brief: as §1

K. pneumoniae UMM = assay: microbe, parasite or virus in culture; assay type: cell-based; conditions: Klebsiella pneumoniae; K. pneumoniae UMM producing SHV-5 and KPC-2; read-out: MIC K. pneumoniae UMM
Method in brief: as §1

[1] = test system: P. aeruginosa (ΔmexAB-oprM); assay: microbe, parasite or virus in culture; assay type: cell-based; conditions: Pseudomonas aeruginosa, read-out: MIC P. aeruginosa ΔmexAB-OprM
Method in brief: as §1

P. aeruginosa ATCC 35151 = assay: microbe, parasite or virus in culture; assay type: cell-based; conditions: Pseudomonas aeruginosa, ATCC35151; hyper-permeable P. aeruginosa ATCC 35151; read-out: MIC P. aeruginosa ATCC 35151
Method in brief: as §1

K. pneumoniae 848844 = assay: microbe, parasite or virus in culture; assay type: cell-based, Klebsiella pneumoniae; conditions: Klebsiella pneumoniae; K. pneumoniae 848844 producing SHV-11 and KPC-2; read-out: MIC K. pneumoniae 848844
Method in brief: as §1

P. aeruginosa PAO1 = assay: Broth microdilution MIC, P. aeruginosa PAO1; assay type: cell-based; conditions: Pseudomonas aeruginosa; P. aeruginosa PAO1, broth microdilution; read-out: MIC P. aeruginosa PAO1
Procedure: (§2) To determine the ability of test compounds to potentiate the inhibition of the growth of bacterial strains, classic cell based broth microdilution minimum inhibitory concentration (MIC) assays were employed. MIC assays are performed according to CLSI methods except where otherwise noted (CLSI, 2011 and CLSI, 2009). The reference type strain E. coli ATCC 25922, the wild-type parent strain E. coli AG100, the hyper-permeable E. coli 901C and E. coli D22 and the E. coli AG100A strain lacking the acrAB efflux pump encoding genes were used to determine the ability of the PBP inhibitors to penetrate the outer membrane of gram-negative bacteria and inhibit bacterial growth. […] The P. aeruginosa PAO1, P. aeruginosa ATCC 27853 and A. baumannii ATCC 19606, along with the hyper-permeable P. aeruginosa ATCC 35151 and an engineered efflux pump-compromised strain of P. aeruginosa (ΔmexAB-oprM) were used to determine the ability of PBP inhibitors to penetrate the outer membrane of P. aeruginosa and A. baumannii and assess antibacterial activity against these important gram-negative organisms.
(§3) Briefly, cryo-preserved bacterial cultures of challenge strains are streaked for isolation on appropriate agar medium, in this case Mueller Hinton II agar. Following incubation to allow growth of the colonies, plates are sealed with parafilm and stored refrigerated for up to two weeks. For preparation of assay inoculum and to ensure low variability, at least 5 colonies are picked from the agar plates with an inoculating loop and aseptically transferred to a culture tube containing 3 mL of Mueller-Hinton Broth (supplemented with divalent cations to required levels based on Manufacturers' certification). The broth culture is grown for 3-5 hours at 37° C. with shaking at 200 rpm. Meanwhile, 2-fold serial dilutions of test compounds are conducted in a 96 well plate with a final volume of 75 μL per well at 2-fold the final desired concentration. After the dilution plates are set up the growing cultures are then diluted in a cuvette containing MH II broth and the optical density is measured at 600 nm. The Inoculum is diluted such that 75 μL of this culture in Mueller-Hinton Broth results in a starting bacterial concentration of 5×10^5 CFU/mL when added to the dilution plates. The plates are incubated for 16-20 hours at 37° C. The MIC values are read visually as the lowest concentration well with no bacterial growth.

A. baumannii ATCC 19606 = assay: Broth microdilution MIC, A. baumannii ATCC 19606; assay type: cell-based; conditions: Acinetobacter baumannii, ATCC19606; A. baumannii ATCC 19606, broth microdilution; read-out: MIC A. baumannii ATCC 19606
Procedure: as §2, §3

Chain of E. coli PBP3 (P0AD68 whole entry): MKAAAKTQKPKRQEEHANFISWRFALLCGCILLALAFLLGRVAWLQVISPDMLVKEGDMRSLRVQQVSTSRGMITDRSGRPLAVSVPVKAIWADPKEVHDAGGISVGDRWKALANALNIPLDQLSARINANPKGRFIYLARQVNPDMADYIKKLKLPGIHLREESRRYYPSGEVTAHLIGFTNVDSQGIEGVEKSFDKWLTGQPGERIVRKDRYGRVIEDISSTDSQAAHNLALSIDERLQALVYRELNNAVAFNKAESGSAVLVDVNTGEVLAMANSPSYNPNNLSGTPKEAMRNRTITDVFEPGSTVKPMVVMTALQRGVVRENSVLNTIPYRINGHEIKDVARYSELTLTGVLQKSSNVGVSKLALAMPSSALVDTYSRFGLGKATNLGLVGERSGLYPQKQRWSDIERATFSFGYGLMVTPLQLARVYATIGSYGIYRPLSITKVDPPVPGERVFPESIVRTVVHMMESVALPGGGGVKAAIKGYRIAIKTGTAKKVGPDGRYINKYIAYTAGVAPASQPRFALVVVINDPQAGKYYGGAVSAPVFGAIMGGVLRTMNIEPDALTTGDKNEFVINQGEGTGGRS

Row | SMILES | EC50 (E. coli PBP3) | MIC (E. coli ATCC 25922) | MIC (E. coli AG100) | MIC (E. coli 901C) | MIC (E. coli AG100A) | MIC (E. coli D22) | MIC (K. pneumoniae SI-117) | MIC (K. pneumoniae UMM) | MIC [1] | MIC (P. aeruginosa ATCC 35151) | MIC (K. pneumoniae 848844) | MIC (P. aeruginosa PAO1) | MIC (A. baumannii ATCC 19606) | EC50 (E. coli PBP3; fluorescence polarization competition binding with Bocillin-FL, read-out: E. coli K12 PBP3 Potency)
1 | CCN1CCN(C(=O)NC(C(=O)N[C@H]2Cc3c(F)cc(F)c(C(=O)O)c3OB2O)c2ccc(O)c(O)c2Cl)C(=O)C1=O (stereo partly drawn) [Example 185, (3R)-3-(2-(2-chloro-3,4-dihydroxyphenyl)-2-(4-ethyl-2,3-dioxopiperazine-1-carboxamido)acetamido)-5,7-difluoro-2-hydroxy-3,4-dihydro-2H-benzo[e][1,2]oxaborinine-8-carboxylic acid] | 30 to 500 µM | 8 to 16 µg/mL | 2 to 4 µg/mL | 0.5 to 1 µg/mL | 2 to 4 µg/mL | 2 to 4 µg/mL | 2 to 4 µg/mL | 2 to 4 µg/mL | 0.5 to 1 µg/mL | < 0.25 µg/mL | 0.5 to 1 µg/mL | > 128 µg/mL | > 128 µg/mL | –
2 | NCCN1CCN(C(=O)N[C@H](C(=O)N[C@H]2Cc3ccc(F)c(C(=O)O)c3OB2O)c2ncc(O)cc2F)C(=O)C1=O [Example 231, (R)-3-((S)-2-(4-(2-aminoethyl)-2,3-dioxopiperazine-1-carboxamido)-2-(3-fluoro-5-hydroxypyridin-2-yl)acetamido)-7-fluoro-2-hydroxy-3,4-dihydro-2H-benzo[e][1,2]oxaborinine-8-carboxylic acid] | 30 to 500 µM | 32 to 64 µg/mL | 32 to 64 µg/mL | 2 to 4 µg/mL | 8 to 16 µg/mL | 8 to 16 µg/mL | 32 to 64 µg/mL | 32 to 64 µg/mL | 8 to 16 µg/mL | 0.5 to 1 µg/mL | 32 to 64 µg/mL | > 128 µg/mL | > 128 µg/mL | –
3 | CCN1CCN(C(=O)NC(C(=O)N[C@H]2Cc3cccc(C(=O)O)c3OB2O)c2ccc(S(N)(=O)=O)cc2F)C(=O)C1=O (stereo partly drawn) [Example 203, (3R)-3-(2-(4-ethyl-2,3-dioxopiperazine-1-carboxamido)-2-(2-fluoro-4-sulfamoylphenyl)acetamido)-2-hydroxy-3,4-dihydro-2H-benzo[e][1,2]oxaborinine-8-carboxylic acid] | – | 32 to 64 µg/mL | 32 to 64 µg/mL | < 0.25 µg/mL | 2 to 4 µg/mL | 2 to 4 µg/mL | > 128 µg/mL | 32 to 64 µg/mL | 8 to 16 µg/mL | 0.5 to 1 µg/mL | > 128 µg/mL | > 128 µg/mL | > 128 µg/mL | < 30 µM
4 | O=C(O)c1cccc2c1OB(O)[C@@H](NC(=O)C(NC(=O)N1C[C@@H]3CCCN3C(=O)C1=O)c1ccc(O)c(O)c1Cl)C2 (stereo partly drawn) [Example 222, (3R)-3-(2-(2-chloro-3,4-dihydroxyphenyl)-2-((S)-3,4-dioxooctahydropyrrolo[1,2-a]pyrazine-2-carboxamido)acetamido)-2-hydroxy-3,4-dihydro-2H-benzo[e][1,2]oxaborinine-8-carboxylic acid] | 30 to 500 µM | > 128 µg/mL | 32 to 64 µg/mL | 32 to 64 µg/mL | 32 to 64 µg/mL | > 128 µg/mL | > 128 µg/mL | 32 to 64 µg/mL | < 0.25 µg/mL | < 0.25 µg/mL | > 128 µg/mL | 8 to 16 µg/mL | 32 to 64 µg/mL | –
